Data from patent US8999957B2, “Heterocyclic compounds as ERK inhibitors” (Merck Sharp & Dohme Corp., priority 2010, dated 2015).
Read-outs that look alike come from different tables or passages of the source.

Key:
[1] = target: fully phosphorylated, mouse aERK2 enzyme (Mus musculus (Mouse), UniProt P63085); experiment: Active ERK2 (aERK) IMAP-FP assay, condition 2; assay type: biochemical
Method: (§1) Active ERK2 (aERK) Assay: (Unless Indicated Otherwise, the Data Provided for aERK was obtained using Condition 1)
Activated ERK2 activity was determined in an IMAP-FP assay (Molecular Devices). […] Phosphorylation reactions were allowed to proceed for 40-45 minutes and were immediately quenched by the addition of 60 μL IMAP detection beads (1:1000 dilutions) in IMAP binding buffer. Plates were read on EnVision reader after 30 minutes binding equilibration.

[2] = target: fully phosphorylated, active Mouse ERK2 protein (Mus musculus (Mouse), UniProt P63085); experiment: Active ERK2 (aERK) IMAP assay, condition 1; assay type: biochemical; conditions: aERK assay condition 1, 30 μM ATP
Chain of fully phosphorylated, active Mouse ERK2 protein (P63085 whole entry): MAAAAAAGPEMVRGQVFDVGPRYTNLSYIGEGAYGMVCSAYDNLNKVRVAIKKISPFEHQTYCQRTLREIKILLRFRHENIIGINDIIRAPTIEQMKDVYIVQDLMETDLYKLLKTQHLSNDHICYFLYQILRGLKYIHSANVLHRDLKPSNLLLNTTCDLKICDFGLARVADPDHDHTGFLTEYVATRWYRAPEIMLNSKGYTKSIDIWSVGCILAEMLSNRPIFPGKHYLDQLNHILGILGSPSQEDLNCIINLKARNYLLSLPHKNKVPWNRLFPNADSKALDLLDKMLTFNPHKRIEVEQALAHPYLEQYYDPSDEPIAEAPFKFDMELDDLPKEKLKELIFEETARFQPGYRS
Method: as §1
Activated ERK2 activity was also determined in the IMAP assay format using the procedure outlined above. […] Reactions proceeded for 30 minutes before termination by addition of 60 μl IMAP detection beads in binding buffer. Plates were read as above after 30 minute binding equilibration.

[3] = active ERK2, read-out: aErk2 Ic50
[4] = aERK assay condition 2, 30 uM ATP, read-out: aERK IC50

Chain of fully phosphorylated, mouse aERK2 enzyme (P63085 whole entry): as above

Row | SMILES | IC50 [2] [nM] | other results
1 | COc1cccc(F)c1CN1C[C@H](NC(=O)c2ccc3[nH]nc(-c4ccncc4)c3c2)CC[C@H]1C(=O)N(C)C [N-[(3R,6S)-6-(dimethylcarbamoyl)-1-(2-fluoro-6-methoxybenzyl)piperidin-3-yl]-3-pyridin-4-yl-1H-indazole-5-carboxamide] |  | IC50 [1, 3]: 18.2 nM
2 | COc1cccc(F)c1CN1C[C@H](NC(=O)c2ccc3[nH]nc(-c4ccc5nn(C)cc5c4)c3c2)CC[C@H]1C(=O)N(C)C |  | IC50 [1, 3]: 15.9 nM
3 | CCN(CC)C(=O)[C@@H]1CC[C@@H](NC(=O)c2ccc3[nH]nc(-c4ccnnc4)c3c2)CN1Cc1c(F)cccc1OC [N-[(3R,6S)-6-(diethylcarbamoyl)-1-(2-fluoro-6-methoxybenzyl)piperidin-3-yl]-3-pyridazin-4-yl-1H-indazole-5-carboxamide] |  | IC50 [1, 3]: 137 nM
4 | COc1cccc(F)c1CN1C[C@H](NC(=O)c2ccc3[nH]nc(-c4ccnnc4)c3c2)CC[C@H]1C(=O)N1CC(F)(F)C1 [N-[(3R,6S)-6-[(3,3-difluoroazetidin-1-yl)carbonyl]-1-(2-fluoro-6-methoxybenzyl)-piperidin-3-yl]-3-pyridazin-4-yl-1H-indazole-5-carboxamide] |  | IC50 [1, 3]: 61.2 nM
5 | COc1cccc(F)c1CN1CCC[C@@H](NC(=O)c2ccc3[nH]nc(C4=CCS(=O)(=O)CC4)c3c2)C1 [3-(1,1-dioxido-3,6-dihydro-2H-thiopyran-4-yl)-N-[(3R)-1-(2-fluoro-6-methoxy-benzyl)piperidin-3-yl]-1H-indazole-5-carboxamide] |  | IC50 [1, 4]: 8.4 nM
6 | O=C(N[C@@H]1CCCN(CC2CC2)C1)c1ccc2[nH]nc(-c3ccncc3)c2c1 |  | IC50 [1, 4]: 206 nM
7 | Cc1cc(-c2n[nH]c3ccc(C(=O)N[C@@H]4CC[C@@H](C(=O)Nc5nccs5)N(CCc5ccccc5)C4)cc23)ccn1 [3-(2-methylpyridin-4-yl)-N-[(3R,6S)-1-(2-phenylethyl)-6-(1,3-thiazol-2-ylcarbamoyl)-piperidin-3-yl)-1H-indazole-5-carboxamide] |  | IC50 [1, 3]: 133 nM
8 | COc1cccc(F)c1CN1C[C@H](NC(=O)c2ccc3[nH]nc(-c4ccnc(C)c4)c3c2)CC[C@H]1C(=O)NCCNC(=O)OC(C)(C)C [tert-butyl [2-({[(2S,5R)-1-(2-fluoro-6-methoxybenzyl)-5-({[3-(2-methylpyridin-4-yl)-1H-indazol-5-yl]carbonyl}amino)piperidin-2-yl]carbonyl}amino)ethyl]carbamate] |  | IC50 [1, 3]: 18.9 nM
9 | COc1cccc(F)c1CN1C[C@H](NC(=O)c2ccc3[nH]nc(-c4ccc5nn(C)cc5c4)c3c2)CC[C@H]1C(=O)Nc1nccs1 |  | IC50 [1, 3]: 113 nM
10 | COc1cccc(F)c1CN1C[C@H](NC(=O)c2ccc3[nH]nc(-c4ccnc(C)c4)c3c2)CC[C@H]1C(=O)NCCCCl [N-[(3R,6S)-6-[(3-chloropropyl)carbamoyl]-1-(2-fluoro-6-methoxybenzyl)piperidin-3-yl]-3-(2-methylpyridin-4-yl)-1H-indazole-5-carboxamide] |  | IC50 [1, 3]: 11.8 nM
11 | COc1ccc(NC(=O)[C@@H]2CC[C@@H](NC(=O)c3ccc4[nH]nc(-c5ccnc(C)c5)c4c3)CN2Cc2c(F)cccc2OC)cc1 [N-{(3R,6S)-1-(2-fluoro-6-methoxybenzyl)-6-[(4-methoxyphenyl)carbamoyl]piperidin-3-yl}-3-(2-methylpyridin-4-yl)-1H-indazole-5-carboxamide] |  | IC50 [1, 4]: 11.6 nM
12 | COc1cccc(F)c1CN1C[C@H](NC(=O)c2ccc3[nH]nc(-c4ccnc(C)c4)c3c2)CC[C@H]1C(=O)NCC1(CO)CCCC1 [N-[(3R,6S)-1-(2-fluoro-6-methoxybenzyl)-6-({[1-(hydroxymethyl)cyclopentyl]methyl}carbamoyl)piperidin-3-yl]-3-(2-methylpyridin-4-yl)-1H-indazole-5-carboxamide] |  | IC50 [1, 4]: 8.8 nM
13 | [2H]C([2H])([2H])Oc1cccc(F)c1CN1C[C@H](NC(=O)c2ccc3[nH]nc(-c4ccc5nc(C)sc5c4)c3c2)CC[C@H]1C(=O)N1CCN(C(=O)OC(C)(C)C)CC1 |  | IC50 [1, 3]: 72.8 nM
14 | [2H]C([2H])([2H])N1CC[C@@H](c2ccccc2)[C@H](NC(=O)c2ccc3[nH]nc(-c4ccc(OC(C)C)cc4)c3c2)C1 | 300 | 
15 | O=C(NC1CN(Cc2ccccc2F)CC(F)(F)C1)c1ccc2[nH]nc(-c3ccncc3)c2c1 (stereo not shown) | 127 | 
16 | COc1cccc(F)c1CN1CCC[C@@H](NC(=O)c2ccc3[nH]nc(-c4ccc5nsnc5c4)c3c2)C1 | 175 | 
17 | O=C(NC1CN(Cc2c(F)cccc2F)CC(F)(F)C1)c1ccc2[nH]nc(-c3ccncc3)c2c1 (stereo not shown) | 241 | 
18 | Cc1nc2ccc(-c3n[nH]c4ccc(C(=O)N[C@@H]5C[C@H](Cc6c(F)cccc6F)CN(C)C5)cc34)cn2n1 | 1.45 | 
19 | COc1cccc(F)c1CN1CCC[C@@H](NC(=O)c2ccc3[nH]nc(-c4ccc5nc(C)nn5c4)c3c2)C1 | 22.2 | 
20 | O=C(N[C@@H]1CNCC[C@H]1c1ccccc1)c1ccc2[nH]nc(-c3ccc4[nH]ncc4c3)c2c1 | 13.7 | 
21 | Cn1cc2cc(-c3n[nH]c4ccc(C(=O)N[C@H]5C[C@@H](C(F)(F)F)CN(Cc6c(F)cccc6F)C5)cc34)ccc2n1 | 375 | 
22 | O=C(N[C@@H]1CNCC[C@H]1c1ccccc1)c1ccc2[nH]nc(-c3ccc4[nH]c(=O)[nH]c4c3)c2c1 | 50.1 | 
23 | Cc1cc(-c2n[nH]c3ccc(C(=O)NC4CC[C@H]5CC[C@@H]4N5Cc4ccccc4F)cc23)ccn1 (stereo partly shown) | 9.1 | 
24 | CN1CC[C@@H](c2ccccc2)[C@H](NC(=O)c2ccc3[nH]nc(-c4ccc5c(c4)CCO5)c3c2)C1 | 118 | 
25 | CN1CC(Cc2c(F)cccc2F)CC(NC(=O)c2ccc3[nH]nc(-c4ccc5nsnc5c4)c3c2)C1 (stereo not shown) | 3.23 | 
26 | Cc1cc(-c2n[nH]c3ccc(C(=O)NC4CC(Cc5c(F)cccc5F)CN(C)C4)cc23)ccn1 (stereo not shown) [N-(5-(2,6-difluorobenzyl)-1-methylpiperidin-3-yl)-3-(2-methylpyridin-4-yl)-1H-indazole-5-carboxamide] | 4.8 | 
27 | COc1cccc(F)c1CN1CCC[C@@H](NC(=O)c2ccc3[nH]nc(-c4ccc5nc(C(F)(F)F)nn5c4)c3c2)C1 | 822 | 
28 | O=C(N[C@@H]1CCCN(Cc2ccccc2C(F)(F)F)C1)c1ccc2[nH]nc(-c3ccc4c(c3)CCO4)c2c1 | 1000 | 

Row | SMILES | IC50 [2] [nM] | other results
29 | Cn1cnnc1CN1CCC[C@@H](NC(=O)c2ccc3[nH]nc(-c4ccncc4)c3c2)C1 | 231 | 
30 | O=C(N[C@@H]1CNCC[C@H]1c1ccccc1)c1ccc2[nH]nc(-c3ccc4c(c3)OCO4)c2c1 | 27.1 | 
31 | O=C(NC1CCCCN(CCc2ccccc2)C1)c1ccc2[nH]nc(-c3ccncc3)c2c1 (stereo not shown) | 8.72 | 
32 | COC(=O)[C@@H]1CC[C@@H](NC(=O)c2ccc3[nH]nc(-c4ccncc4)c3c2)CN1Cc1ccccc1 | 40.7 | 
33 | COc1cccc(F)c1CN1CCC(O[Si](C)(C)C(C)(C)C)C(NC(=O)c2ccc3[nH]nc(-c4ccc5nccn5c4)c3c2)C1 (stereo not shown) | 318 | 
34 | COC(=O)[C@@H]1CC[C@@H](NC(=O)c2ccc3[nH]nc(-c4ccncc4)c3c2)CN1Cc1c(F)cccc1OC | 40.5 | 
35 | CN1C[C@H](Cc2c(F)cccc2F)C[C@@H](NC(=O)c2ccc3[nH]nc(-c4ccc5nonc5c4)c3c2)C1 | 1000 | 
36 | COc1cccc(F)c1CN1CC(NC(=O)c2ccc3[nH]nc(-c4ccncc4)c3c2)CC(F)(F)C1 (stereo not shown) | 17.4 | 
37 | COc1cccc(F)c1CN1CCC2CC2(NC(=O)c2ccc3[nH]nc(-c4ccc5nccn5c4)c3c2)C1 (stereo not shown) | 86 | 
38 | COCCOc1cccc(F)c1CN1CCC[C@@H](NC(=O)c2ccc3[nH]nc(-c4ccncc4)c3c2)C1 | 16.9 | 
39 | O=C(NC1CCCCN(CC2CCc3ccccc32)C1)c1ccc2[nH]nc(-c3ccncc3)c2c1 (stereo not shown) | 85.4 | 
40 | O=C(NC1CCCCN(Cc2ccccn2)C1)c1ccc2[nH]nc(-c3ccncc3)c2c1 (stereo not shown) | 369 | 
41 | O=C(NC1CCCCN(Cc2ccccc2)C1)c1ccc2[nH]nc(-c3ccncc3)c2c1 (stereo not shown) | 249 | 
42 | O=C(NC1CCCCN(CCc2ccccc2F)C1)c1ccc2[nH]nc(-c3ccncc3)c2c1 (stereo not shown) | 5 | 
43 | CN1C[C@H](Cc2c(F)cccc2F)C[C@H](NC(=O)c2ccc3[nH]nc(-c4ccn5ccnc5c4)c3c2)C1 | 1.59 | 
44 | Cc1cc(-c2n[nH]c3ccc(C(=O)N[C@@H]4CCCN(CC(F)(F)c5ccccc5)C4)cc23)ccn1 | 76.5 | 
45 | COc1cccc(F)c1CN1CCC[C@@H](NC(=O)c2ccc3[nH]nc(-c4ccc5ncsc5c4)c3c2)C1 | 28.2 | 
46 | CCNC(=O)[C@@H]1CC[C@@H](NC(=O)c2ccc3[nH]nc(-c4ccncc4)c3c2)CN1Cc1ccccc1 [drawing 353] | 48.3 | 
47 | O=C(N[C@@H]1CCCN(c2ccccc2F)C1)c1ccc2[nH]nc(-c3ccncc3)c2c1 | 62.3 | 
48 | O=C(NC1CCCCN(CCCc2ccccc2)C1)c1ccc2[nH]nc(-c3ccncc3)c2c1 (stereo not shown) | 72.5 | 
49 | COc1cccc(F)c1CN1C[C@H](NC(=O)c2ccc3[nH]nc(-c4ccnc(C)c4)c3c2)CC[C@H]1C(=O)N1CCC(O)CC1 [N-{(3R,6S)-1-(2-fluoro-6-methoxybenzyl)-6-[(4-hydroxypiperidin-1-yl)carbonyl]piperidin-3-yl}-3-(2-methylpyridin-4-yl)-1H-indazole-5-carboxamide] | 14.6 | 
50 | COc1cccc(F)c1CN1CC(NC(=O)c2ccc3[nH]nc(-c4ccc5nccn5c4)c3c2)CCC1C1CC1 (stereo not shown) | 49.3 | 
51 | Cn1cc(-c2n[nH]c3ccc(C(=O)N[C@@H]4CCCN(Cc5ccccc5F)C4)cc23)ccc1=O | 21.1 | 
52 | CN1CC(Cc2c(F)cccc2F)CC(NC(=O)c2ccc3[nH]nc(-c4ccc5ncsc5c4)c3c2)C1 (stereo not shown) | 2.71 | 
53 | COc1ccccc1CN1CC(NC(=O)c2ccc3[nH]nc(-c4ccncc4)c3c2)CC(F)(F)C1 (stereo not shown) | 167 | 
54 | Cn1cc2cc(-c3n[nH]c4ccc(C(=O)N[C@@H]5C[C@H](C(F)(F)F)CN(Cc6c(F)cccc6F)C5)cc34)ccc2n1 | 39.8 | 
55 | CC(C)Oc1ccc(-c2n[nH]c3ccc(C(=O)N[C@@H]4CN(C)CC[C@H]4c4ccccc4)cc23)cc1 | 300 | 
